# Data taken from patent US6271369A, “Chimeric molecules targeted to viral RNAs” (priority 1997, dated 2001).
# Legend:
# [1] = tested on: 2-5A-dependent RNase; assay: Radiobinding (nitrocellulose filter) competition assay for 2-5A-dependent RNase in mouse liver extract; type: binding
# Procedure: SEQ ID NO:1, SEQ ID NO:2, Chimeric Molecule 3, and Chimeric Molecule 4 were tested for their ability to bind to 2-5A-dependent RNase in vitro. The affinity of these 2-5A:AS constructs for 2-5A-dependent RNase was established with a highly specific radiobinding assay. This radiobinding assay measured the ability of 2-5A or 2-5A analogs to compete with a ^32 P-labeled 2-5A probe, ppp5'A2'p5'A2'p5'A2'p5'A3'-[^32 p]p5'C3'p, for binding to 2-5A-dependent RNase. The nitrocellulose filter binding assay of Knight et al. (Methods Enzymol. , 79: 216 (1981)) was used to measure the concentrations of 2-5A or the chimeric 2-5A:AS molecule required to compete with the radiolabeled probe, ppp5'A2'-p5'A2'p5'A2'p5A3'[^32 P]p5C3'p, for binding to 2-5A-dependentRNase in a mouse liver extract.
# FIGS. 3A and 3B show the relative affinities of SEQ ID NO:1 (.tangle-solidup.) and 2-5A (ppp5'A2'p5'A2'p5'A) (.circle-solid.) for 2-5A-dependent RNase. A measure of 100% binding was found in the absence of any unlabeled oligonucleotide. The data for SEQ ID NO:1 and 2-5A in these figures represent the means and standard deviations from 6 and 7 assays, respectively.
# [2] = tested on: TAR:A25 :vif RNA; assay: Primer-extension analysis of TAR:A25:vif RNA cleavage products; type: biochemical, HIV-1
# Procedure: To determine the exact sites of cleavage of the TAR:A25 :vif RNA induced by SEQ ID NO:1, a primer-extension DNA synthesis reaction was performed on the RNA cleavage products with reverse transcriptase.
# A primer extension assay was used as described by Driscoll, et al. (Cell, 58:519 (1989)) except that all four dNTPs were included. DNA sequencing of plasmid pSP6/TAR:A25 :vif was with the same primer using Sequenase version 2.0 (United States Biochemical) and ^35 S-dATP. The sequence of the primer was 5'-[…]-3'(SEQ ID NO:3). Results were reproduced from two separate sets of RNA cleavage reactions.
# The cleavage sites of the RNA subjected to the RNA cleavage reactions described above were determined by comparing the migration of the primer extension products and DNA sequencing products performed with the same primer annealed to the plasmid containing the TAR:A25 :vif sequence. […] Previous reports indicate that unmodified 2-sA stimulates 2-5A-dependent RNase to cleave RNA on the 3'-side of UN sequences, where N stands for any nucleotide.
# [3] = tested on: TAR:vif RNA; assay: Cleavage of control TAR:vif RNA (no oligo(rA) tract) in Daudi cell extract; type: biochemical, HIV-1; conditions: 0.2 or 1.0 μM
# From the text: To determine the ability of the 2-5A:AS chimeric molecule SEQ ID NO:1 to induce site-directed RNA cleavage, a target RNA was constructed having an internal 3',5'-oligo(rA) tract. Hybridization between the (dT18) in SEQ ID NO:1 with the oligo(rA) in the target RNA attracts 2-5A-dependent RNase to the target RNA, resulting in a highly specific cleavage event. The experimental target, TAR:A25 :vif RNA, was produced in vitro from a pSP64-derived plasmid containing a partial cDNA for the HIV vif protein interrupted with 25 adenylyl residues. A control TAR:vif RNA was constructed with the A25 tract deleted. These RNA species, which lack 3'-poly(rA) tails, were radiolabeled at their 3'-termini with [5'-^32 p)-pCp by T4 RNA ligase and gel purified prior to the assay. […]
# Daudi cell extracts prepared with dounce homogenization were made by the well known method of Wreschner, et al. in a buffer containing 40mM KCl; 10 mM HEPES pH 7.5; 2.5mM magnesium acetate; 0.5mM ATP; 2.5% glycerol and 2.0mM mercaptoethanol. […] Cleavage products were analyzed in 6% polyacrylamide/8M urea gels (30×40×0.04cm).
# This property of the 2-5A:AS molecule was determined by experiments employing unmodified 2-5A. […]
# [4] = tested on: poly(A); assay: UV absorbance-temperature profile (melting) of complex with poly(A); type: physicochemical; conditions: 40 mM KH2PO4 pH 7.0
# Procedure: We also compared the melting temperature of poly (A) with the melting temperature of SEQ ID NO:1 (FIG. 4). For this experiment, 1000 μL of 3.2×10^-6 M poly(A) in KH2 PO4 buffer (pH 7.0, 40 mM) was mixed with 1000 μL of 2.9 ×10^-6 M SEQ ID NO:1 in KH2 PO4 buffer, and the resulting mixture was incubated at 4° overnight before determination of melting temperature. At/Ai refers to the ratio of absorbance (At) at a given temperature compared to the absorbance (Ai) at the initial temperature (25-30° ). No -attempt was made to determine complex stoichiometry (2- or 3-stranded). Under similar conditions, an equimolar mixture of poly(A) and oligo(dT)20 gave a complex with a Tm of 40° (data not shown).
# The effect of the 2-5A moiety of SEQ ID NO:1 on the ability of the dT18 region to anneal with its complementary poly (A) sequence as determined from UV absorbance-temperature profiles is shown in FIG. 4.
substance,measurement,setting,value
p5'A2'(p5'A2')2 P5'A2'p1[OCH2 (CH2)2 CH2 O]4p1[OCH2 (CH2)2 CH2 O]4p5'pdT3'(p5'dt3')16 p5'dt (AAAATTTTTTTTTTTTTTTTTT; chemistry not fully specified) [SEQ ID NO:1],IC50 / ability to bind 2-5A-dependent RNase compared with unmodified 2-5A,"[1]; compared with ppp5'A2'p5'A2'p5'A, FIG. 3A","very little, if any, decrease in the IC50"
same,binding affinity to 2-5A-dependent RNase when annealed to complementary sequence,"[1]; mixed with excess poly(A), FIG. 3B",no significant change in the binding affinity
same,specific cleavage products / cleavage sites by primer extension,[2],induced multiple cleavages within the oligo(rA) tract
same,levels of intact RNA (full-length primer extension products),[2]; after incubation in cell-free system,greatly reduced
same,specific cleavage in TAR:vif RNA lacking the oligo(rA) tract,[3],failed to yield a specific cleavage
same,melting temperature (Tm) of complex with poly(A),[4],approximately 38 °C
same,hypochromicity on mixing with poly(A),[4]; 3.2×10^-6 M poly(A) + 2.9×10^-6 M,17%
